Experimental data published in patent US20080254439A1, “Plant Extract and Use Thereof as a Cryoprotective Agent” (priority 2005, published 2008).

Assays:
rat hepatocytes [1] = test: Ammonium detoxification to urea (urea determination); type: cell-based; settings: after 4 days in culture; FIG. 4B
Procedure: Urea determination. To evaluate the hepatocyte-mediated biotransformation of ammonia to urea, seeded hepatocytes were exposed to L-15 culture medium containing 10 mM NH4Cl. Samples of media were collected at the beginning and after 24 h intervals of exposure to ammonia, during 3 days. Urea concentration in the samples was measured calorimetrically using the urea nitrogen reagent set (BioTron Diagnostics, Hemet, Calif.) and an ELISA reader at 540 nm. Concentrations of urea were determined using a standard curve ranging from 0 to 45 mg/dl of urea. The results are presented as μg urea/10^6 cells.

CYP1A1 = test: EROD assay after 24 h induction with benzo-a-pyrene in cryopreserved hepatocytes; type: cell-based, rat; settings: 48 h after seeding, FIG. 5A
Procedure: (§1) Enzymatic activity and protein expression of cytochrome P450 isoforms. CYP1A1 and 2B enzymatic activities were measured in hepatocyte cultures induced with benzo-a-pyrene (10 μM). Cells were washed 2 times with PBS and the substrates EROD (8 μM) or PROD (17 μM) (λexc: 530 nm; λem: 585 nm) were added to the culture dishes and incubated for 1 h. The supernatant (300 μl) was mixed with 200 μl of ETOH and the activity in 200 μl of the mixture was measured using an ELISA reader at 585 nm. Enzymatic activity was determined using a standard curve ranging from 0 to 200 μM of resorufin.

rat hepatocytes [2] = test: Viability of seeded thawed hepatocytes by LDH release; type: cell-based; settings: after 24 h in culture; cryopreserved 7 days; FIG. 2
Procedure: The frozen hepatocytes were thawed quickly by gentle agitation in a 37° C. water bath. Viability assays were performed on the hepatocyte suspension. For adherence and metabolic assays, the hepatocyte suspension was diluted 10-fold by addition of cold WME medium, immediately after thawing. A 30% isotonic Percoll centrifugation step was performed to remove dead cells when viability was lower than 80%. After centrifugation (4° C., 50 g, 2 min), hepatocytes were suspended in 10 ml of WME medium. […] After 3 h, the medium was changed and cells were incubated overnight in L-15 medium supplemented with insulin and gentamicin.
Lactate dehydrogenase (LDH) activity was determined in the medium of seeded hepatocytes as a measure of hepatocyte deterioration as described by Moldeus et al. (17). The hepatocyte culture medium was removed daily and the activity of the LDH released into the medium was quantified (18).

rat hepatocytes [3] = test: Adherence and cellular morphology by confocal microscopy; type: cell-based; settings: 24 h after seeding, FIG. 3
Procedure: Adherence and cellular morphology. Adherence and cellular morphology were evaluated by confocal microscopy. For the confocal microscopy observations, tissue culture plates coated with collagen were used. All analyses were carried out using the confocal microscope MRC1024 from BioRad (Microscience, Cambridge, Mass.) equipped with an argon laser (excitation at 488 nm) combined with an inverted microscope Eclipse Model TE 3000 (Nikon, Montreal, QC) with objectives of 40× Hoffman.

isolated rat hepatocytes = test: Viability of suspensions of rat hepatocytes after freezing, calcein/PI test by flow cytometry; type: cell-based; settings: 7 days of freezing; 1.5×10^6 cells/ml; 20 mg protein/extract or 15% DMSO in WME; FIG. 1
Procedure: Hepatocytes were isolated from male Sprague-Dawley rats (120-180 g), obtained from Charles River Canada (Saint-Constant, QC), in a two-step collagenase digestion technique (13; 14). […] Cell viability was evaluated by flow cytometry (FACScan™, Becton Dickinson, Oakville, ON) with 2 μM PI (16).
Cryopreservation of isolated hepatocytes. Immediately after isolation, the hepatocyte suspension was added to a mixture of ice-cold WME medium supplemented with 10% FBS and non-acclimated (NA) or CA wheat protein extracts (WPEs) in cold cryovials. […] The tubes containing cells were then frozen at a cooling rate of 1° C./min in a controlled freezing container (Nalgene, Rochester, N.Y.) to −80° C. for one day, and then transferred to liquid nitrogen.
Viability assays. After freeze/thaw cycles, hepatocyte suspensions were stained with the fluorescent probes 4 μM calcein and 2 μM PI in WME medium for 5 minutes. The samples were analyzed by flow cytometry (excitation at 488 nm) using a Becton Dickinson FACScan™. The number of live cells expressing green fluorescence of calcein and the number of dead cells expressing red fluorescence of PI were determined with Cell Quest™ software (Becton Dickinson, Oakville, ON).

rat hepatocytes [4] = test: Albumin secretion by sandwich ELISA; type: cell-based; settings: after 4 days in culture; FIG. 4A
Procedure: Determination of albumin secretion. Albumin secretion from hepatocytes was quantified every 24 h, until 96 h, in different hepatocyte culture media by the sandwich enzyme-linked immunosorbent assay (ELISA) according to Uotila et al. (19), with minor modifications (20). Briefly, 96-well plates (Nunc, Napierville, Ill.) were coated with anti-rat albumin rabbit antiserum (1 μg/ml). The plates were incubated for 30 min at room temperature (RT), then at 4° C. overnight, washed with phosphate buffered saline (PBS), blocked for 30 min at RT with 5% FBS in PBS, and then rewashed with PBS. Serial dilutions of sample and albumin standard were added (200 μl/well). The plates were incubated for III at RT and washed with PBS supplemented with 0.05% Tween-20 (PBS-T). Thereafter, the secondary antibody (peroxidase-conjugated anti-rat albumin; 2 μg/ml) was added and the plates were incubated for 1 h at RT. After 3 washings with PBS-T, the plates were incubated with the substrate o-phenylendiamine (OPND) (0.1 M NaH2PO4, 1 mg/ml OPND, 0.4 μl/ml H2O2) for 30 min at RT in the dark. The reaction was stopped with 4 M H2SO4. Albumin concentrations were determined at 550 nm using a standard curve ranging from 0 to 250 ng/dl of rat albumin using an ELISA reader ([sequence]luor Plus™, Tecan, Calif.).

CYP2B = test: PROD assay after 24 h induction with benzo-a-pyrene in cryopreserved hepatocytes; type: cell-based, rat; settings: 48 h after seeding, FIG. 5A
Procedure: as §1

rat hepatocytes [5] = test: Plating efficiency by LDH activity; type: cell-based; settings: culture period 3 hours
Procedure: Thawing of cryopreserved hepatocytes. The frozen hepatocytes were thawed quickly by gentle agitation in a 37° C. water bath. Viability assays were performed on the hepatocyte suspension. For adherence and metabolic assays, the hepatocyte suspension was diluted 10-fold by addition of cold WME medium, immediately after thawing. […] After centrifugation (4° C., 50 g, 2 min), hepatocytes were suspended in 10 ml of WME medium. Hepatocytes were washed twice as above, then suspended at 3.5×10^5/ml in WME and cultured in tissue culture plates in WME medium supplemented with insulin and gentamicin in a humidified atmosphere of 5% CO2 and 95% air at 37° C. After 3 h, the medium was changed and cells were incubated overnight in L-15 medium supplemented with insulin and gentamicin. Plating efficiency. Plating efficiency was determined by measuring the LDH activity in cells prior to seeding and in 3 and 24 h-old cultures. Plating efficiency was defined as the LDH activity in 24 h-old cultures divided by the LDH activity in pre-culture cells.

Relative activity of P450 CYP1A1 compared to fresh hepatocytes (CYP1A1): decreased slightly
Relative activity of P450 CYP2B compared to fresh hepatocytes (CYP2B): decreased slightly
SMILES: C[S+](C)[O-] [DMSO, dimethyl sulfoxide]
Initial detoxification activity maintained (urea production) (rat hepatocytes [1]): 16%
Viability (LDH) of thawed hepatocytes in culture (rat hepatocytes [2]): 60.2%
Cell-to-cell contacts (rat hepatocytes [3]): no cell-cell contacts were detected
Viability of rat hepatocytes after freezing (isolated rat hepatocytes): 62.5%
Albumin secretory activity maintained (rat hepatocytes [4]): 48%
Plating efficiency (rat hepatocytes [5]): 64.9 ± 1.7%
